Assay results published in publication PMC11085442 (Molecules, 2024).
≈ marks a conversion by molar mass, not a printed value.

How the values were obtained:
[1] = system: H2O2-stimulated PC 12 cell lines; experiment: Protection against H2O2-induced oxidative damage (CCK-8); format: cell-based, rat; details: for Cell viability / viability at 5 µM / viability at 10 µM / viability at 20 µM: H2O2-induced oxidative damage, PC 12, H2O2 group 49.69 ± 1.37, control 100; for Cell viability: in % (unit assumed); for viability at 5 µM / viability at 10 µM / viability at 20 µM: Rattus norvegicus; for viability at 5 µM: PC-12, Dose 5 μM; for viability at 10 µM: PC-12, Dose 10 μM; for viability at 20 µM: PC-12, Dose 20 μM
Experimental: PC 12 cells were seeded in 96-well plates at a density of 8000 cells/well and incubated overnight. […] After incubating under the same conditions for 24 h, 10 μL CCK-8 solution was added to each well. After 2 h incubation, the absorbance of each well was measured at 450 nm using a microplated reader (Multiskan MK-3, Thermo, Waltham, MA, USA).

[2] = system: LPS-stimulated RAW264.7 cell lines; experiment: LPS-induced NO production (Griess) in RAW264.7; format: cell-based, murine; details: for The production of NO: LPS group 49.86 ± 0.62, control 1.20 ± 0.38; for inhibitory activity against NO production compared with curcumin: 10 μM
Experimental: RAW 264.7 cells were plated in 96-well plates at a density of 1 × 10^4 cells/well and incubated overnight at 37 °C under 5% CO2. […] Dexamethasone (Solarbio, D8040, Beijing, China) was used as the positive control. Then, 24 h later, NO production was determined by measuring the nitrite content using Griess reagents. Fifty microliters of culture supernatants were transferred to 96-well plates and mixed with 50 μL Griess reagent A. After incubation at room temperature for 5 min, the samples were mixed with an equal volume Griess reagent B for another 5 min. The absorbance of each mixture at 540 nm was measured using a microplate reader.

[3] = Aqueous solubility determination by UV spectrophotometer; format: physicochemical; details: water, thermodynamic from solid, saturated solution concentration
Experimental: A UV spectrophotometer was used to test the aqueous solubility of target compounds. Each compound to be tested was prepared into solutions with concentrations of 0.2 M, 0.1 M, 0.05 M, 0.025 M, 0.0125 M, 0.00625 M, and 0.003125 M. The optical density (OD) values of the prepared solutions were measured using an ultraviolet spectrophotometer, and concentration–OD-value standard curves were drawn for each compound to be tested. The saturated solutions of the target compounds were diluted by 5000 times and detected using an ultraviolet spectrophotometer to measure the OD values, respectively. The measured OD values were substituted into the corresponding concentration-OD value standard curve to calculate the diluted concentrations, which were multiplied by 5000 to obtain the saturated solution concentrations of the target compounds.

PC 12 cell lines = experiment: Radiation protection in vitro (CCK-8); format: cell-based, rat; details: for viability at 5 µM / viability at 10 µM / viability at 20 µM: Rattus norvegicus; for viability at 5 µM: PC-12, Dose 5 μM; for viability at 5 µM / viability at 10 µM / viability at 20 µM / Cell viability: radiation 8.0 Gy, PC 12, radiation group 50.22 ± 1.08; for viability at 10 µM: PC-12, Dose 10 μM; for viability at 20 µM: PC-12, Dose 20 μM; for Cell viability: in % (unit assumed); for radiation protection capacity / radiation protection capability compared with curcumin: 10 μM; for radiation protection capacity: versus radiation group
Experimental: The rat adrenal pheochromocytoma cells (PC 12) were used for in vitro studies. A Cell Counting Kit-8 (CCK-8, Applygen Technologies Co., Ltd., Beijing, China) assay was used to determine cell viability. […] Cells were irradiated with dose of 8.0 Gy at a dose rate of 0.8 Gy/min. Then, 10 μL CCK-8 solution was added to all the wells. After 4 h incubation, the absorbance at 450 nm of each well was measured in a multiscan photometer.

[4] = Dose 5 μM, LPS-stimulated RAW264.7
[5] = Dose 10 μM, LPS-stimulated RAW264.7
[6] = Dose 15 μM, LPS-stimulated RAW264.7

Row | Compound | Cell viability ([1]; Dose 5 μM) | Cell viability ([1]; Dose 10 μM) | Cell viability ([1]; Dose 20 μM) | The production of NO [2, 4] | The production of NO [2, 5] | The production of NO [2, 6] | solubility [3] [mg/mL] | viability at 5 µM (PC 12 cell lines) [%] | viability at 10 µM (PC 12 cell lines) [%] | viability at 5 µM [1] [%] | viability at 10 µM [1] [%] | viability at 20 µM [1] [%] | inhibitory activity against NO production compared with curcumin [2] | Cell viability (PC 12 cell lines; Dose 5 μM) | Cell viability (PC 12 cell lines; Dose 10 μM) | Cell viability (PC 12 cell lines; Dose 20 μM) | radiation protection capacity (PC 12 cell lines) | other results
1 | COc1cc(O)ccc1/C=C/C(=O)CC(=O)/C=C/c1cc(CN(C)C)c(O)c(OC)c1 [Compound 9a] | 63.56 ± 2.88 | 70.76 ± 3.98 | 81.08 ± 2.61 | 36.91 ± 0.59 | 21.33 ± 0.19 | 11.29 ± 0.25 | 167 (≈ 393 mM) | 56.9 ± 1.03 | 60.9 ± 1.55 | – | – | – | – | – | – | – | – | viability at 20 µM (PC 12 cell lines): 70.2 ± 2.99%
2 | COc1cc(/C=C/C(=O)CC(=O)/C=C/c2ccc(O)cc2)cc(CN(C)C)c1O [Compound 10a] | – | – | – | 24.20 ± 1.36 | 7.81 ± 0.85 | 3.91 ± 0.22 | 335 (≈ 848 mM) | – | – | 54.9 ± 1.34 | 64.7 ± 2 | 84 ± 4.36 | better inhibitory activity | 61.98 ± 2.45 | 67.94 ± 4.69 | 81.14 ± 3.72 | – | cell survival rate (anti-oxidant) ([1]; at 10 μM, H2O2-stimulated PC 12): 64%; inhibition at 15 µM ([2]; Mus musculus, at 15 μM, LPS-stimulated RAW264.7, read-out: inhibition rate on NO release): 92%
3 | COc1cc(/C=C/C(=O)CC(=O)/C=C/c2cc(C)c(O)cc2C)cc(CN(C)C)c1O [Compound 12a] | – | – | – | 18.38 ± 1.63 | 12.76 ± 0.83 | 9.05 ± 0.72 | 206 (≈ 487 mM) | – | – | 76.3 ± 3.14 | 81.9 ± 2.3 | 88.1 ± 2.09 | better inhibitory activity | 59.04 ± 1.00 | 63.19 ± 1.90 | 77.34 ± 2.18 | a certain degree of radiation protection capacity | anti-oxidant capacity compared with curcumin ([1]; 10 μM, H2O2-stimulated PC 12): better anti-oxidant capacity
4 | COc1cc(/C=C/C(=O)CC(=O)/C=C/c2ccc(O)cc2F)cc(CN(C)C)c1O [Compound 4a] | 67.52 ± 3.31 | 75.00 ± 2.39 | 86.52 ± 5.31 | 31.54 ± 1.30 | 20.51 ± 1.88 | 9.45 ± 1.96 | 314 (≈ 760 mM) | 56.4 ± 3.51 | 61.5 ± 3.74 | – | – | – | – | – | – | 97.55 ± 3.44 | – | –
5 | COc1cc(/C=C/C(=O)CC(=O)/C=C/c2ccc(O)cc2C)cc(CN(C)C)c1O [Compound 3a] | 61.60 ± 3.89 | 72.94 ± 2.65 | 86.90 ± 1.63 | 32.92 ± 2.00 | 16.27 ± 1.74 | 5.29 ± 0.97 | 255 (≈ 623 mM) | 57.1 ± 3.05 | 64.2 ± 0.94 | – | – | – | better inhibitory activity | – | – | – | – | viability at 20 µM (PC 12 cell lines): 69.1 ± 2.51%
6 | COc1cc(/C=C/C(=O)CC(=O)/C=C/c2c(OC)cc(O)cc2OC)cc(CN(C)C)c1O [Compound 14a] | – | – | – | 29.10 ± 0.37 | 13.47 ± 0.31 | 7.49 ± 0.40 | 126 (≈ 277 mM) | – | – | 68 ± 3.05 | 77.1 ± 0.64 | 81.9 ± 1.35 | better inhibitory activity | 64.83 ± 0.66 | 68.68 ± 1.31 | 77.66 ± 1.75 | a certain degree of radiation protection capacity | radiation protection capability compared with curcumin (PC 12 cell lines; irradiated PC 12): better radiation protection capability
7 | COc1ccc(/C=C/C(=O)CC(=O)/C=C/c2cc(CN(C)C)c(O)c(OC)c2)cc1O [Compound 11a] | – | – | – | 35.82 ± 1.34 | 15.68 ± 3.02 | 4.63 ± 0.40 | 132 (≈ 311 mM) | – | – | 61.5 ± 1.46 | 73.7 ± 3.89 | 97.3 ± 1.95 | better inhibitory activity | 60.93 ± 1.64 | 64.92 ± 0.58 | 106.32 ± 7.58 | a certain degree of radiation protection capacity | cell survival rate (radiation protection) (PC 12 cell lines; at 20 μM, irradiated PC 12): 106%
8 | COc1cc(/C=C/C(=O)CC(=O)/C=C/c2cc(CN(C)C)c(O)c(OC)c2)ccc1O [Compound 15a] | – | – | – | 33.79 ± 2.90 | 17.01 ± 0.60 | 4.71 ± 0.18 | 284 (≈ 667 mM) | – | – | 62.2 ± 2.53 | 72.5 ± 2.02 | 89.22 ± 0.36 | better inhibitory activity | – | – | – | – | –
9 | COc1cc(/C=C/C(=O)CC(=O)/C=C/c2c(C)cc(O)cc2C)cc(CN(C)C)c1O [Compound 13a] | – | – | – | 17.80 ± 2.19 | 9.09 ± 1.21 | 5.58 ± 0.11 | 285 (≈ 674 mM) | – | – | 71.5 ± 2.53 | 77.9 ± 3.02 | 90.2 ± 3.77 | better inhibitory activity | 66.55 ± 2.11 | 75.50 ± 1.73 | 88.50 ± 1.18 | a certain degree of radiation protection capacity | radiation protection capability compared with curcumin (PC 12 cell lines; irradiated PC 12): better radiation protection capability
